This is an account of results in the pKa sets of Baltruschat and Czodrowski (2020).

In general, pKa refers to the negative logarithm of the acid dissociation constant. Higher therefore signals a group that holds its proton tightly.

The conditions of one series: acidic group.
As to `C[Si](C)(CC(=O)O)c1ccccc1`, the pKa was found to be 5.27.
As for `Fc1cccc(NC(=S)c2ccccc2)c1`, the pKa was found to be 10.3.
The same measure, in the same setting: the result for `Fc1ccc(NC(=S)c2ccccc2)cc1` reads 10.8; that for `CC(=O)CC(=S)Nc1ccc(C)cc1`, 7.65.
`Brc1ccc2c(c1)-c1ccccc1C2[P+](c1ccccc1)(c1ccccc1)c1ccccc1` (stereo not given) yielded a pKa of 7.53.
In the case of `Cc1cc(C(C)C)ccc1O`, the pKa came out at 10.6.
Consider `[O-]c1cc[nH+]cc1O`, for which the pKa amounted to 9.6.
As to `O=C(O)[C@@H]1C[C@@H](O)C[NH2+]1`, the pKa was 1.92.
`O=C(O)[C@@H]1O[C@H](Oc2c[nH+]c3ccccc3c2)[C@@H](O)[C@H](O)[C@H]1O`: the pKa worked out at 3.
Consider `CSc1nc2cc3c(cc2[nH]1)CCCC3`, for which the pKa worked out at 13.
The molecule `Cc1ccc(/C=C/C(=O)O)cc1` showed a pKa of 4.56.
In the case of `CCOC(=O)c1ccc(O)c([N+](=O)[O-])c1`, the pKa was 5.44.
Consider `C[n+]1c2ccccc2nc2ccc(O)cc21`, for which the pKa came to 3.
In turn, `CN(C)c1cccc[n+]1O` gave a pKa of 2.27.
Same read-out and setting: to `O/N=C/c1ccccc1O` belongs 9.21; to `CC(C)CCC[NH+](C)CCCNC(=O)/C=N/O`, 8.72.
Still for that read-out and setting: the result for `O=C1CCCC(=O)N1O` reads 7.6; that for `O=S(Cc1ccccc1)c1ncn[nH]1` (stereo not given), 7.38; that for `C[N+](C)(C)CC(O)CC(=O)O` (stereo not given), 3.8.
In turn, `N#CC(Cc1ccccc1)C(=O)O` (stereo not given) showed a pKa of 2.24.
Same read-out and setting: the result for `Cc1c(Br)cccc1C(=O)O` reads 3.36; that for `C/C(=N\O)c1ccccc1`, 11.3.
`Nc1ccc(S(=O)(=O)Nc2ccn(-c3cccc([N+](=O)[O-])c3)n2)cc1`: the pKa amounted to 7.03.
Molecule `NS(=O)(=O)c1cccc(Cl)c1` showed a pKa of 9.04.
In turn, `COC(=O)[n+]1ccc(N)cc1` registered a pKa of 9.15.
`COc1cccc(C(=O)O)c1C`: the pKa came to 3.72.
Turning to `Cc1ccnc(NS(=O)(=O)c2ccc(Cl)cc2)n1`, the pKa came to 5.37.
Consider `Cc1c(C)c(O)c(C)c(C)c1[O-]`, for which the pKa was determined as 12.8.
Turning to `[O-]c1cc([O-])cc(O)c1`, the pKa stood at 14.1.
`[NH3+][C@@H](Cc1nc(I)[nH]c1I)C(=O)[O-]` had a pKa of 8.18.
Molecule `CCOC(=O)c1c[nH+]c2cc([N+](=O)[O-])ccc2c1O` displayed a pKa of 4.1.
For `O=C(O)Cn1cccc1`, the pKa came to 3.3.
As to `N#CC1C=CN(Cc2cccc(F)c2)C=C1C(N)=O` (stereo not given), the pKa turned out to be 0.68.
Molecule `N#Cc1c(-c2nc3cc(Cl)ccc3o2)c(=O)oc2cc(O)ccc12` came in with a pKa of 6.
In turn, `Sc1cnc2ccccc2c1` showed a pKa of 6.13.
Molecule `CC1CCCC(=O)C1=O` (stereo not given) came in with a pKa of 11.2.
In the case of `Nc1cc([O-])ccc1O`, the pKa is 11.2.
Molecule `CCN(CC)CC(=N\[O-])/C(C)=N/O` registered a pKa of 11.9.
`C[N+](C)(C)CCc1ccccc1O`: the pKa was 9.57.
`CC(C)(C(=O)O)c1nnnn1C1CCCCC1` showed a pKa of 3.7.
`COc1cc(C(C)=O)ccc1O`: the pKa was determined as 7.65.
`C/C=C/C#CC(=O)O` showed a pKa of 2.67.
On the same count and under the same terms, the result for `S=CNCc1ccccc1` reads 12.3; that for `COc1ccc([C@H]2C[C@@H]2C(=O)O)cc1`, 4.62; that for `CSC1=NC(C)(C)C(O)=N1`, 9.48.
Molecule `O=c1cc(-c2ccccc2O)oc2ccccc12` gave a pKa of 8.85.
Take `Cc1cc(O)c(C(C)C)cc1Cl`: the pKa came to 9.98.
For `C[N+](C)(C)NC(=O)c1cccc([N+](=O)[O-])c1`, the pKa came to 3.16.
On to `Oc1ccc(-c2ccc(O)cc2)cc1`, for which the pKa was 9.4.
On the same count and under the same terms, to `Nc1n[nH]cc1[N+](=O)[O-]` belongs 9.73; to `CC(=O)N(O)c1ccccc1`, 8.36; to `Nc1ccc(-c2ccc(/N=C/c3ccccc3O)cc2)cc1`, 11.1.
`Cc1ccc(C(=S)Nc2cccc(F)c2)cc1`: the pKa amounted to 10.6.
Regarding `CN1CC(=O)NC1=O`, the pKa was 11.4.
`Cc1cc(C#N)cc[n+]1O` yielded a pKa of -0.67.
Turning to `Cc1ccc([Se]CC(=O)O)cc1`, the pKa is 3.86.
Regarding `[NH3+][C@H]1CC[C@H](C(=O)O)CC1`, the pKa was found to be 3.92.
Turning to `CC(=S)Nc1ccc([N+](=O)[O-])cc1`, the pKa was 9.89.
`COc1nc(N)c2[nH]cnc2n1` registered a pKa of 10.
`CC[NH2+]CC(=O)O` returned a pKa of 2.31.
As for `O=[PH](O)c1ccccc1`, the pKa is 1.63.
In the case of `CCOC(=O)COc1ccc(Oc2ccc(O)c(C[NH3+])c2)c(Cl)c1Cl`, the pKa stood at 8.55.
`O=[N+]([O-])CSc1ccccc1` returned a pKa of 6.67.
On to `c1ccc(-c2nn[nH]n2)cc1`, for which the pKa was determined as 4.53.
Same read-out and setting: the result for `CCCCCCP(=O)(CCCCCC)CCCCCC` reads 12.8; that for `O=S1(=O)N=CNc2ncccc21`, 7.03.
As to `CC1CC(C(=O)O)=[N+]([O-])C1(C)C` (stereo not given), the pKa turned out to be 2.85.
Still for that read-out and setting: to `Fc1ccc(S)cc1` belongs 6.35; to `CC(C)CNC(O)=S`, 0.38.
The molecule `Oc1ccc2ccc(Cl)cc2c1` showed a pKa of 9.09.

The series is the same for the next values; noted with them: basic group.
Consider `Nc1ccc2[nH]c(=O)[nH]c2c1`, for which the pKa is 5.
On the same count and under the same terms, to `Cc1nc(N)c2cnn(C)c2n1` belongs 5; to `c1cnc2c(c1)ccc1[nH+]cccc12`, 1.
Molecule `CCCn1ccnc1C` came in with a pKa of 8.2.
Molecule `Cc1ccc(Cl)cc1/C(=N/CCC[NH+](C)C)c1ccccc1` displayed a pKa of 3.87.
Consider `CSc1nc2cc3c(cc2[nH]1)CCCC3`, for which the pKa stood at 5.
For the molecule `COC(=O)CCCc1c[nH]cn1`, the pKa was 7.33.
The molecule `O/N=C/c1ccccc1O` came in with a pKa of 1.37.
On to `NCC(=O)Nc1ccc([N+](=O)[O-])cc1`, for which the pKa amounted to 8.5.
Same read-out and setting: to `COc1ccc2c3c1O[C@H]1CCC[C@H]4[C@@H](C2)N(C)CC[C@]314` belongs 8.83; to `NC(Cc1ccccc1)C(=O)[O-]` (stereo not given), 9.17.
Same read-out and setting: to `c1coc(-c2ccncc2)c1` belongs 5.6.
The same measure, in the same setting: to `NCCNCCc1ccccc1` belongs 9.44.
`OC[C@@H]1O[C@H](CN2CCOCC2)[C@@H](O)[C@H](O)[C@@H]1O`: the pKa was 6.1.
The molecule `CC1=CCCN1C` displayed a pKa of 11.9.
Same read-out and setting: the result for `NCCc1cccc(O)c1O` reads 8.6.
The molecule `CCNCc1ccc(C)cc1` returned a pKa of 10.
`CCCCNc1cc[nH+]c([O-])n1` returned a pKa of 4.69.
`CC(=O)NCCN` returned a pKa of 9.28.
On to `N[C@@H](Cc1ccccc1)C(=O)[O-]`, for which the pKa turned out to be 9.14.
With `[NH3+][C@@H](Cc1nc(I)[nH]c1I)C(=O)[O-]`, the pKa was determined as 2.72.
For `NC12CCC(CC1)C2`, the pKa came to 10.2.
In turn, `CC(C)(C)N1C2CCCC21` (stereo not given) displayed a pKa of 9.22.
In turn, `CC(C)C(C(C)C)N(C)C` had a pKa of 10.1.
As for `ClC1CN2CCC1CC2` (stereo not given), the pKa is 8.79.
Same read-out and setting: the result for `Cn1ccc2ccc3cccnc3c21` reads 4.36; that for `C[C@@H]1N[C@H]1C`, 5.33; that for `CN(C)CCOC(c1ccccc1)c1ccc(Br)cc1` (stereo not given), 8.64.
`CN(C)c1cccc2cccc(N(C)C)c12`: the pKa was 12.1.
The molecule `Sc1cnc2ccccc2c1` showed a pKa of 2.33.
The same measure, in the same setting: to `CCC(CO)NCl` (stereo not given) belongs 1.55; to `CN1CCCC2CCN=C21` (stereo not given), 11.5.
As to `NCCCBr`, the pKa amounted to 8.93.
`CCN(CC)CC(=N\[O-])/C(C)=N/O` came in with a pKa of 11.9.
`Fc1ccccn1`: the pKa is -0.44.
Still for that read-out and setting: the result for `CN(C)c1ccc2c(c1)Sc1cc(N(C)C)ccc1N2` reads 5.53; that for `NC(=O)C([NH3+])Cc1c[nH]cn1` (stereo not given), 5.78.
On to `CC(C)NCC(O)c1cccc(N)c1` (stereo not given), for which the pKa was found to be 9.6.
Turning to `Nc1cc[nH+]c([O-])n1`, the pKa turned out to be 4.61.
On to `CC(C)[C@H]1CC[C@H](C)C[C@@H]1N`, for which the pKa is 10.6.
Take `Cc1cccc2cc3ccccc3nc12`: the pKa came out at 4.5.
`CCN(CC)c1ncnc2[nH]ncc12` had a pKa of 4.71.
As to `[O-]c1c(Cl)c(Cl)cc(Cl)c1CN1CCOCC1`, the pKa is 8.23.
`Cc1cc(CN)c(O)c(CN)c1` yielded a pKa of 9.7.
As to `Cn1cnc2cnc([O-])nc21`, the pKa is 9.19.
On the same count and under the same terms, the result for `CN(C)Cc1cc([N+](=O)[O-])ccc1[O-]` reads 9.93.
The molecule `Nc1ccc(Br)cc1Br` came in with a pKa of 2.3.
Same read-out and setting: the result for `C=CCN(C)C` reads 8.72; that for `CCCCCCCCCCCCCCCCCN`, 10.6; that for `CCN(CC)Cc1cccc(C)c1[O-]`, 10.9.
For the molecule `CC(C)(N)C#N`, the pKa came to 5.3.
In turn, `C1CN2CCCN2C1` showed a pKa of 7.95.
With `COc1c(Cl)cc(Cl)c([O-])c1C(=O)NC1CCN(C)CC1`, the pKa is 9.12.
In turn, `Nc1ccc(-c2ccc(/N=C/c3ccccc3O)cc2)cc1` returned a pKa of 7.68.
The same measure, in the same setting: the result for `C(CN1CCOCC1)C[NH+]1CCOCC1` reads 6.25; that for `CCOc1ccc2[nH]c(CC)nc2c1`, 6.27.
In turn, `CNc1cc[nH+]c([O-])n1` registered a pKa of 4.55.
For the molecule `Cn1cnc2nc(N)nc([O-])c21`, the pKa stood at 8.43.
Still for that read-out and setting: to `COc1cc(O)ccc1C(=N)c1ccccc1` belongs 5.99; to `COc1nc(N)c2[nH]cnc2n1`, 3.7.
`CCOCCn1c(N2CCCN(CCCCn3cccn3)CC2)nc2ccccc21` displayed a pKa of 8.5.
`CCN(CC)CCCNc1c2ccccc2[nH+]c2ccccc12` registered a pKa of 8.53.
For the molecule `CNc1ccccn1`, the pKa amounted to 7.13.
`C[Si](C)(C)CN` yielded a pKa of 10.9.
Same read-out and setting: to `CC(=O)Oc1ccccc1C(=O)NCC(=O)O` belongs 3.77; to `c1nc(Cc2c[nH]c(Cc3nc(Cc4cnc[nH]4)c[nH]3)[nH+]2)c[nH]1`, 6.66; to `OCC1CN2CCC1CC2` (stereo not given), 10.6.
As for `O=[N+]([O-])c1ccc(NO)cc1`, the pKa was 0.65.
The molecule `COc1c2ccccc2nc2ccccc12` yielded a pKa of 7.
In turn, `CCN(CC)CC(=O)Nc1ccccc1` gave a pKa of 8.
As to `NCCc1ccc([O-])cc1`, the pKa came to 10.4.
Same read-out and setting: the result for `CN=C1CCCCC1` reads 9.43; that for `Cc1n[nH]c2c(NCc3ccco3)ncnc12`, 4.84.
For `C1CCN(CCCN2CCCC2)C1`, the pKa stood at 10.
Turning to `COc1cccc(C2NCCS2)c1` (stereo not given), the pKa is 5.12.
